Experimental data as given in US20260199423A1, “COMPOSITIONS COMPRISING AN ONCOLYTIC PEPTIDE AND CHITOSAN” (LYTIX BIOPHARMA AS, priority 2022, published 2026).

Test system: B16F1 melanoma cells
Experiment: Melanoma mouse model, injection into the tumor
Type: in vivo, C57BL/6NRj mice
Settings: 50 μl into the tumor on two consecutive days; groups of 10 mice; FIG. 2
Experimental: The following compositions were prepared as described in Example 1 in aqueous acetic acid/acetate buffer, pH 5.2. The following chitosan was used in this study: chitosan medium molecular weight, 330 kDa, DAA 86% (manufacturer Chitinor, Norway). • 1: LTX-401, 5 mg/ml (free base) • 2: Chitosan, 1.2% (w/w) • 3: LTX-401, 5 mg/ml (free base) and chitosan, 1.2% (w/w) • 4: Control: aqueous acetic acid/acetate buffer
Immunocompetent C57BL/6NRj mice (JanVier Labs, France) were inoculated with B16F1 melanoma cells on day 0 by subcutaneous injection of 5×10^4 tumor cells per mouse/50 μl RPMI-1640 in the skin on the abdomen of the animal. The mice were divided into 4 groups of 10 mice each, and treatment was initiated when the tumors were palpable and reached the desired size of approximately 5 mm in diameter (40-80 mm^3). The respective compositions 1~4 were administered by injection into the tumor (50 μl) on two consecutive days (day 11 and 12 or day 12 and 13 or day 13 and 14, depending on tumor growth). The mice were monitored during the study by measuring the tumors and weighing the animals regularly. The tumor volume was measured using an electronic caliper and expressed as volume V=(L×W×W)/2, where W is the tumor width and L is the tumor length. […]

SMILES: NCCNC(=O)C(CN)(CCCc1ccccc1)CCCc1ccccc1 [LTX-401]
- Survival: 60%
